Test results: PubChem BioAssay (NCI)
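How tested: cells in 96-well plates exposed to compound for 48 hours at five concentrations. The concentration for full growth arrest is given as TGI.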

What was measured:
Assay in all cases: DTP human tumour cell line panel, 48 h
786-0 renal = tested on: 786-0 renal
A498 renal = tested on: A498 renal
A549 NSCLC = tested on: A549 NSCLC
ACHN renal = tested on: ACHN renal
BT-549 breast = tested on: BT-549 breast
CAKI-1 renal = tested on: CAKI-1 renal
CCRF-CEM leukemia = tested on: CCRF-CEM leukemia
COLO 205 colon = tested on: COLO 205 colon
DU-145 prostate = tested on: DU-145 prostate
EKVX NSCLC = tested on: EKVX NSCLC
HCC-2998 colon = tested on: HCC-2998 colon
HCT-116 colon = tested on: HCT-116 colon
HCT-15 colon = tested on: HCT-15 colon
HL-60(TB) leukemia = tested on: HL-60(TB) leukemia
HOP-62 NSCLC = tested on: HOP-62 NSCLC
HOP-92 NSCLC = tested on: HOP-92 NSCLC
HS 578T breast = tested on: HS 578T breast
HT29 colon = tested on: HT29 colon
IGROV1 ovarian = tested on: IGROV1 ovarian
K-562 leukemia = tested on: K-562 leukemia
KM12 colon = tested on: KM12 colon
LOX IMVI melanoma = tested on: LOX IMVI melanoma
M14 melanoma = tested on: M14 melanoma
MALME-3M melanoma = tested on: MALME-3M melanoma
MCF7 breast = tested on: MCF7 breast
MDA-MB-231 breast = tested on: MDA-MB-231 breast
MDA-MB-435 = tested on: MDA-MB-435
MDA-N = tested on: MDA-N
MOLT-4 leukemia = tested on: MOLT-4 leukemia
NCI-H226 lung = tested on: NCI-H226 lung
NCI-H23 lung = tested on: NCI-H23 lung
NCI-H460 lung = tested on: NCI-H460 lung
NCI-H522 lung = tested on: NCI-H522 lung
NCI/ADR-RES ovarian = tested on: NCI/ADR-RES ovarian
OVCAR-3 ovarian = tested on: OVCAR-3 ovarian
OVCAR-4 ovarian = tested on: OVCAR-4 ovarian
OVCAR-5 ovarian = tested on: OVCAR-5 ovarian
OVCAR-8 ovarian = tested on: OVCAR-8 ovarian
PC-3 prostate = tested on: PC-3 prostate
RPMI-8226 leukemia = tested on: RPMI-8226 leukemia
RXF 393 renal = tested on: RXF 393 renal
SF-268 CNS = tested on: SF-268 CNS
SF-295 CNS = tested on: SF-295 CNS
SF-539 CNS = tested on: SF-539 CNS
SK-MEL-2 melanoma = tested on: SK-MEL-2 melanoma
SK-MEL-28 melanoma = tested on: SK-MEL-28 melanoma
SK-MEL-5 melanoma = tested on: SK-MEL-5 melanoma
SK-OV-3 ovarian = tested on: SK-OV-3 ovarian
SN12C renal = tested on: SN12C renal
SNB-19 CNS = tested on: SNB-19 CNS
SNB-75 CNS = tested on: SNB-75 CNS
SR leukemia = tested on: SR leukemia
SW-620 colon = tested on: SW-620 colon
T-47D breast = tested on: T-47D breast
TK-10 renal = tested on: TK-10 renal
UACC-257 melanoma = tested on: UACC-257 melanoma
UACC-62 melanoma = tested on: UACC-62 melanoma
UO-31 renal = tested on: UO-31 renal
U251 CNS = tested on: U251 CNS

With NC(=O)C(Nc1ccc(Cl)cc1)c1cc2cc(Br)ccc2nc1Cl (centres undefined) the TGI (786-0 renal) was > 50 µM, the TGI (A498 renal) was > 50 µM and the TGI (A549 NSCLC) was > 50 µM. For the same compound, the TGI (ACHN renal) was > 50 µM, the TGI (BT-549 breast) was > 50 µM and the TGI (CAKI-1 renal) was > 50 µM. For the same compound, the TGI (CCRF-CEM leukemia) was > 50 µM, the TGI (COLO 205 colon) was > 50 µM and the TGI (DU-145 prostate) was > 50 µM. The TGI (EKVX NSCLC) was > 50 µM, the TGI (HCC-2998 colon) was > 50 µM and the TGI (HCT-116 colon) was > 50 µM. For the same compound, the TGI (HCT-15 colon) was > 50 µM, the TGI (HL-60(TB) leukemia) was > 50 µM and the TGI (HOP-62 NSCLC) was > 50 µM. The TGI (HOP-92 NSCLC) was > 50 µM, the TGI (HS 578T breast) was > 50 µM and the TGI (HT29 colon) was > 50 µM. The TGI (IGROV1 ovarian) was > 50 µM, the TGI (K-562 leukemia) was > 50 µM and the TGI (KM12 colon) was > 50 µM. The TGI (LOX IMVI melanoma) was > 50 µM, the TGI (M14 melanoma) was > 50 µM and the TGI (MALME-3M melanoma) was > 50 µM. The TGI (MCF7 breast) was > 50 µM, the TGI (MDA-MB-231 breast) was > 50 µM and the TGI (MDA-MB-435) was > 50 µM. The TGI (MDA-N) was > 50 µM, the TGI (MOLT-4 leukemia) was > 50 µM and the TGI (NCI-H226 lung) was > 50 µM. For the same compound, the TGI (NCI-H23 lung) was > 50 µM, the TGI (NCI-H460 lung) was > 50 µM and the TGI (NCI-H522 lung) was > 50 µM. The TGI (NCI/ADR-RES ovarian) was > 50 µM, the TGI (OVCAR-3 ovarian) was > 50 µM and the TGI (OVCAR-4 ovarian) was > 50 µM. The TGI (OVCAR-5 ovarian) was > 50 µM, the TGI (OVCAR-8 ovarian) was > 50 µM and the TGI (PC-3 prostate) was > 50 µM. The TGI (RPMI-8226 leukemia) was > 50 µM, the TGI (RXF 393 renal) was > 50 µM and the TGI (SF-268 CNS) was > 50 µM. For the same compound, the TGI (SF-295 CNS) was > 50 µM, the TGI (SF-539 CNS) was > 50 µM and the TGI (SK-MEL-2 melanoma) was > 50 µM. The TGI (SK-MEL-28 melanoma) was > 50 µM, the TGI (SK-MEL-5 melanoma) was > 50 µM and the TGI (SK-OV-3 ovarian) was > 50 µM. The TGI (SN12C renal) was > 50 µM, the TGI (SNB-19 CNS) was > 50 µM and the TGI (SNB-75 CNS) was > 50 µM. For the same compound, the TGI (SR leukemia) was > 50 µM, the TGI (SW-620 colon) was > 50 µM and the TGI (T-47D breast) was > 50 µM. For the same compound, the TGI (TK-10 renal) was 47.7 µM, the TGI (UACC-257 melanoma) was > 50 µM and the TGI (UACC-62 melanoma) was > 50 µM. For the same compound, the TGI (UO-31 renal) was > 50 µM.
Cn1c(-c2ccc(N=NNc3ccc(-c4n[nH]c(=S)n4C)cc3)cc2)n[nH]c1=S was tested, and the TGI (786-0 renal) was > 100 µM, the TGI (A498 renal) was > 100 µM and the TGI (A549 NSCLC) was > 100 µM. For the same compound, the TGI (ACHN renal) was 3.93 µM, the TGI (BT-549 breast) was 12.6 µM and the TGI (CCRF-CEM leukemia) was > 100 µM. For the same compound, the TGI (COLO 205 colon) was > 100 µM, the TGI (DU-145 prostate) was 30.6 µM and the TGI (EKVX NSCLC) was > 100 µM. The TGI (HCT-116 colon) was > 100 µM, the TGI (HCT-15 colon) was > 100 µM and the TGI (HL-60(TB) leukemia) was > 100 µM. The TGI (HOP-62 NSCLC) was 69.4 µM, the TGI (HOP-92 NSCLC) was 8.84 µM and the TGI (HS 578T breast) was > 100 µM. For the same compound, the TGI (HT29 colon) was > 100 µM, the TGI (IGROV1 ovarian) was 46.4 µM and the TGI (K-562 leukemia) was > 100 µM. The TGI (LOX IMVI melanoma) was > 100 µM, the TGI (M14 melanoma) was > 100 µM and the TGI (MALME-3M melanoma) was > 100 µM. The TGI (MCF7 breast) was > 100 µM, the TGI (MDA-MB-231 breast) was 43.4 µM and the TGI (MDA-MB-435) was > 100 µM. For the same compound, the TGI (MDA-N) was > 100 µM, the TGI (MOLT-4 leukemia) was > 100 µM and the TGI (NCI-H226 lung) was 48.8 µM. The TGI (NCI-H23 lung) was > 100 µM, the TGI (NCI-H522 lung) was > 100 µM and the TGI (NCI/ADR-RES ovarian) was > 100 µM. For the same compound, the TGI (OVCAR-3 ovarian) was > 100 µM, the TGI (OVCAR-4 ovarian) was > 100 µM and the TGI (OVCAR-5 ovarian) was > 100 µM. For the same compound, the TGI (OVCAR-8 ovarian) was 23.4 µM, the TGI (PC-3 prostate) was > 100 µM and the TGI (RXF 393 renal) was 32.6 µM. The TGI (SF-268 CNS) was > 100 µM, the TGI (SF-295 CNS) was > 100 µM and the TGI (SK-MEL-2 melanoma) was > 100 µM. The TGI (SK-MEL-28 melanoma) was > 100 µM, the TGI (SK-MEL-5 melanoma) was 48.1 µM and the TGI (SK-OV-3 ovarian) was 54.9 µM. The TGI (SN12C renal) was > 100 µM, the TGI (SNB-19 CNS) was 70.2 µM and the TGI (SNB-75 CNS) was 35.1 µM. The TGI (SR leukemia) was > 100 µM, the TGI (SW-620 colon) was > 100 µM and the TGI (T-47D breast) was 8.28 µM. For the same compound, the TGI (TK-10 renal) was > 100 µM, the TGI (U251 CNS) was 28.9 µM and the TGI (UACC-257 melanoma) was > 100 µM.
